Patent US20260200890A1, “ADAR1 INHIBITORS AND METHODS OF USING THE SAME” (AVAMMUNE THERAPEUTICS INC., priority 2022, published 2026)
pEC50: −log10 of the molar value.

molecular target: T1, ADAR1 (Homo sapiens, UniProt P55265); assay: ADAR1 Inhibition Assay (IFN fold-induction, Quanti-Luc luminescence, p110 KO A549 dual cells); type: cell-based; conditions: IFN fold-induction vs DMSO, 24 and 48 h
T1 construct: endogenous in cells; host or cells: p110 KO A549 dual cells
T1 sequence (P55265 1-1226): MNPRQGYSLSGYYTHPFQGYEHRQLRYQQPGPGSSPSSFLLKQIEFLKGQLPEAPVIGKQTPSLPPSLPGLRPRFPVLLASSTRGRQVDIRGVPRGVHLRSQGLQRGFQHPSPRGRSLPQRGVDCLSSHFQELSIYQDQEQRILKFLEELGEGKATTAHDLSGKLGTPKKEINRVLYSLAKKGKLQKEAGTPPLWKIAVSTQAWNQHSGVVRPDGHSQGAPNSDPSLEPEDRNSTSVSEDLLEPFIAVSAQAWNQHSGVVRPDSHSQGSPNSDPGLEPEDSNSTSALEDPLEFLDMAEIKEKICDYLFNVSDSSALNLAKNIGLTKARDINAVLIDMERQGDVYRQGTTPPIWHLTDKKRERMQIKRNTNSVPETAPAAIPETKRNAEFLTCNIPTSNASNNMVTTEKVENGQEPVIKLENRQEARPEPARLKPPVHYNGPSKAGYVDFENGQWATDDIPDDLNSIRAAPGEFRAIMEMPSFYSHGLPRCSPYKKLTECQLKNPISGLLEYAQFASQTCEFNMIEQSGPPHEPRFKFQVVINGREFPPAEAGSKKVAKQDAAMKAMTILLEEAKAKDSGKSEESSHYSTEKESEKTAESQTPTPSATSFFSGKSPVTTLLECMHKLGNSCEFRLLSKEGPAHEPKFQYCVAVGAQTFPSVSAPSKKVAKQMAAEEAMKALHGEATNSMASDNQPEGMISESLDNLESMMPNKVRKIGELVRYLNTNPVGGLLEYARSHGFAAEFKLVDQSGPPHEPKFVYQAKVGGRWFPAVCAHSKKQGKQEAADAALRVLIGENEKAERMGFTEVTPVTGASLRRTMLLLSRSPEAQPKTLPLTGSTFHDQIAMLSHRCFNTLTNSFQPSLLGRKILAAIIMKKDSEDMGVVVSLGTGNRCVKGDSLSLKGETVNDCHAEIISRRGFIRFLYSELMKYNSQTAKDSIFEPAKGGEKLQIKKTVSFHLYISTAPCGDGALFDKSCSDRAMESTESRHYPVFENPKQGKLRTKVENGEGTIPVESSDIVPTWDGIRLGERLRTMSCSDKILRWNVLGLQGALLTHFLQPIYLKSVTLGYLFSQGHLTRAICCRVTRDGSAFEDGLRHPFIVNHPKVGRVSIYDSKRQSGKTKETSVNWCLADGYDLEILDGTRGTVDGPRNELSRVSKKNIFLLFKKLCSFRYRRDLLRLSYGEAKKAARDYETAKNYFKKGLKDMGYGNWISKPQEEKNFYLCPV
Procedure: An ADAR1 Inhibition Assay was used to determine the biological activity (EC50) of compounds disclosed herein. 100 μL of p110 KO A549 dual cell suspension in supplemented DMEM (20,000 cells per well) was added into a flat bottom 96 well plate. Next day, post media change, 180 μL of supplemented DMEM was added. 20 μL of test compound or positive control was added to the respective wells (Final concentration of DMSO is 1%). The plate was incubated for 24 and 48 hours at 37° C. in a 5% CO2 incubator. After 24 and 48 h, 20 μL of cell suspension was taken in black well plates and 50 μL of Quanti-Luc was added to each well and luminescence was measured using a microplate reader (Spectra Max). IFN fold-induction was plotted considering DMSO as control using the relative luminescence unit (RLU) values. (Fold induction: Sample RLU/Average DMSO RLU).

Row | Compound | pEC50
1 | CCOC(=O)c1cc(-c2ccccc2)sc1NC(=O)CN1CCN(S(C)(=O)=O)CC1 [Compound 143] | < 4.00
2 | CCOC(=O)c1nc(-c2ccccc2)oc1NC(=O)COC(=O)c1cccc(NS(C)(=O)=O)c1 [Compound 145] | < 4.00
3 | CCOC(=O)c1cc(-c2ccccc2)sc1NC(=O)C1CC2(CC2)CN1C(=O)c1cccc(NS(C)(=O)=O)c1 (stereo not shown) [Compound 148] | < 4.00
4 | CCOC(=O)c1cc(-c2ccccc2)sc1NC(=O)C1CCCN(C(=O)c2cccc(NS(C)(=O)=O)c2)C1 (stereo not shown) [Compound 152] | < 4.00
5 | CS(=O)(=O)Nc1cccc(C(=O)OCC(=O)Nc2nnc(-c3ccccc3)s2)c1 [Compound 153] | ≥ 4.60
6 | CCOC(=O)c1cc(-c2ccccc2)sc1NC(=O)C1CCN(C(=O)c2cccc(NS(=O)(=O)N3CCOCC3)c2)C1 (stereo not shown) [Compound 158] | < 4.00
7 | CCOC(=O)c1cc(-c2cc[nH]n2)sc1NC(=O)COC(=O)c1cccc(NS(C)(=O)=O)c1 [Compound 159] | < 4.00
8 | CCOC(=O)c1cc(-c2ccccc2)sc1NC(=O)COC1CCN(S(C)(=O)=O)CC1 [Compound 160] | < 4.00
9 | CCOC(=O)c1cc(-c2ccccc2)sc1NC(=O)N1CCN(C(=O)c2cccc(NS(C)(=O)=O)c2)CC1 [Compound 167] | < 4.00
10 | CCOC(=O)c1cc(-c2ccccc2)sc1NC(=O)C1CCN(C(=O)c2cccc(NS(C)(=O)=O)c2)CC1 [Compound 168] | < 4.00
11 | CS(=O)(=O)Nc1cccc(C(=O)N2CCC(C(=O)Nc3nnc(-c4ccccc4)s3)C2)c1 (stereo not shown) [Compound 173] | < 4.00
12 | CCOC(=O)c1cc(-c2ccccc2)sc1NC(=O)Cn1cnc2c(N)ncnc21 [Compound 176] | < 4.00
13 | CCOC(=O)c1cc(-c2ccccc2)sc1NC(=O)COC(=O)N1CCN(S(C)(=O)=O)CC1 [Compound 178] | < 4.00
14 | CCOC(=O)c1cc(-c2ccccc2)sc1NC(=O)COCc1cccc(N(S(C)(=O)=O)S(C)(=O)=O)c1 [Compound 179] | < 4.00
15 | CCOC(=O)c1cc(-c2ccccc2)sc1NC(=O)C1CCN(Cc2cccc(NS(C)(=O)=O)c2)C1 (stereo not shown) [Compound 184] | < 4.00
16 | CS(=O)(=O)Nc1cccc(C(=O)OCC(=O)Nc2nnc(-c3ccccc3)o2)c1 [Compound 185] | < 4.00
17 | CCOC(=O)c1cc(-c2ccccc2)sc1NC(=O)COC(=O)c1cccc(N)c1 [Compound 187] | < 4.00
18 | CCOC(=O)c1cc(-c2ccccc2)ncc1NC(=O)COC(=O)c1cccc(NS(C)(=O)=O)c1 [Compound 189] | ≥ 4.60
19 | CCOC(=O)c1cc(-c2ccccc2)sc1NC(=O)COC(=O)c1cccc(S(=O)(=O)NC(=O)CC)c1 [Compound 193] | < 4.00
20 | CS(=O)(=O)Nc1cccc(NC(=O)CSc2nc(N)nc3nc[nH]c23)c1 [Compound 194] | < 4.00
21 | CCOC(=O)c1cc(-c2ccc(N3CCNCC3)cc2)sc1NC(=O)COC(=O)c1cccc(NS(C)(=O)=O)c1 [Compound 198] | < 4.00
22 | CCOC(=O)c1cc(-c2ccccc2)sc1NC(=O)COC(=O)c1cccc(N(C)C)c1 [Compound 199] | < 4.00
23 | CS(=O)(=O)Nc1cccc(C(=O)OCC(=O)n2cnc3cnc(N)nc32)c1 [Compound 200] | < 4.00
24 | CCOC(=O)c1cc(-c2ccccc2OC(F)(F)F)sc1NC(=O)COC(=O)c1cccc(NS(C)(=O)=O)c1 [Compound 201] | < 4.00
25 | CCOC(=O)c1cc(-c2cccc(OC(F)(F)F)c2)sc1NC(=O)COC(=O)c1cccc(NS(C)(=O)=O)c1 [Compound 202] | < 4.00
26 | CCOC(=O)c1cc(C)sc1NC(=O)COC(=O)c1cccc(NS(C)(=O)=O)c1 [Compound 204] | < 4.00
27 | CCOC(=O)c1cc(-c2ccc(OC)cc2)sc1NC(=O)COC(=O)c1cccc(NS(C)(=O)=O)c1 [Compound 205] | < 4.00
28 | CCOC(=O)c1nc(-c2ccccc2)sc1NC(=O)C1CCN(C(=O)c2cccc(NS(C)(=O)=O)c2)C1 (stereo not shown) [Compound 206] | < 4.00

Further lines, results first:

Row | pEC50 | Compound
29 | < 4.00 | CCOC(=O)c1cc(-c2ccccc2)sc1NC(=O)C1CCN1C(=O)c1cccc(NS(C)(=O)=O)c1 (stereo not shown) [Compound 146]
30 | < 4.00 | CCOC(=O)c1cc(-c2ccccc2)sc1NC(=O)/C=C/c1cccc(NS(C)(=O)=O)c1 [Compound 149]
31 | < 4.00 | CCOC(=O)c1cc(-c2ccccc2)sc1NC(=O)CN(C)C(=O)c1cccc(NS(C)(=O)=O)c1 [Compound 151]
32 | < 4.00 | CS(=O)(=O)Nc1cccc(C(=O)OCC(=O)Nc2sc(-c3ccccc3)cc2C(=O)O)c1 [Compound 154]
33 | < 4.00 | CCOC(=O)c1cc(-c2ccccc2)sc1NC(=O)CN(C(=O)c1cccc(NS(C)(=O)=O)c1)C1CC1 [Compound 155]
34 | ≥ 4.60 | CCOC(=O)c1cc(-c2ccccc2)sc1NC(=O)[C@H]1CCN(C(=O)c2cccc(NS(C)(=O)=O)c2)C1 [Compound 156]
35 | < 4.00 | CCOC(=O)c1cc(-c2ccccc2)sc1NC(=O)[C@H]1CCN(C(=O)c2cccc(NS(C)(=O)=O)c2)C1 [Compound 157]
36 | < 4.00 | CCOC(=O)c1cc(-c2ccccc2)sc1NC(=O)CN(C(=O)c1cccc(NS(C)(=O)=O)c1)C(C)C [Compound 162]
37 | < 4.00 | CCOC(=O)c1cc(-c2ccccc2)sc1NC(=O)CC1CCN(C(=O)c2cccc(NS(C)(=O)=O)c2)CC1 [Compound 164]
38 | < 4.00 | CCOC(=O)c1cc(-c2ccccc2)sc1NC(=O)CCc1cccc(NS(C)(=O)=O)c1 [Compound 165]
39 | < 4.00 | CCOC(=O)c1cc(-c2ccccc2)sc1NC(=O)COC(=O)Nc1cccc(NS(C)(=O)=O)c1 [Compound 166]
40 | < 4.00 | CCOC(=O)c1cc(-c2ccccc2)sc1NC(=O)CCNc1cccc(NS(C)(=O)=O)c1 [Compound 169]
41 | < 4.00 | CCOC(=O)c1cc(-c2ccncc2)sc1NC(=O)COC(=O)c1cccc(NS(C)(=O)=O)c1 [Compound 170]
42 | < 4.00 | CCOC(=O)c1cc(-c2ccccc2)sc1NC(=O)COC(=O)c1cccc(S(C)(=N)=O)c1 (stereo not shown) [Compound 174]
43 | < 4.00 | CCOC(=O)c1cc(-c2ccccc2)sc1NC(=O)COC(=O)c1cccc(CNS(C)(=O)=O)c1 [Compound 177]
44 | < 4.00 | CCOC(=O)c1cc(-c2ccccc2)sc1NC(=O)Cn1cc(-c2cccc(NS(C)(=O)=O)c2)nn1 [Compound 181]
45 | < 4.00 | CCOC(=O)c1cc(-c2ccccc2)sc1NC(=O)Cn1nncc1-c1cccc(NS(C)(=O)=O)c1 [Compound 182]
46 | < 4.00 | CCOC(=O)c1cc(-c2ccccc2)sc1NC(=O)COC(=O)c1cccc(NS(C)(=O)=O)n1 [Compound 183]
47 | < 4.00 | CN(C)C(=O)c1cc(-c2ccccc2)sc1NC(=O)COC(=O)c1cccc(NS(C)(=O)=O)c1 [Compound 186]
48 | < 4.00 | CCOC(=O)c1cc(-c2ccccc2F)sc1NC(=O)COC(=O)c1cccc(NS(C)(=O)=O)c1 [Compound 188]
49 | < 4.00 | CCOC(=O)c1c(NC(=O)COC(=O)c2cccc(NS(C)(=O)=O)c2)sc(-c2ccccc2)c1C [Compound 190]
50 | < 4.00 | COC(=O)c1cc(-c2ccccc2)sc1NC(=O)COC(=O)c1cccc(NS(C)(=O)=O)c1 [Compound 191]
51 | < 4.00 | CCOC(=O)c1cc(-c2cccc(C)c2)sc1NC(=O)COC(=O)c1cccc(NS(C)(=O)=O)c1 [Compound 192]
52 | < 4.00 | CCOC(=O)c1cc(-c2ccccc2)sc1NC(=O)C(C)OC(=O)c1cccc(NS(C)(=O)=O)c1 (stereo not shown) [Compound 195]
53 | < 4.00 | CCOC(=O)c1cc(Cc2ccccc2)sc1NC(=O)COC(=O)c1cccc(NS(C)(=O)=O)c1 [Compound 196]
54 | < 4.00 | CCOC(=O)c1cc(-c2ccccc2C#N)sc1NC(=O)COC(=O)c1cccc(NS(C)(=O)=O)c1 [Compound 197]
55 | < 4.00 | CC(C)(C)OC(=O)COC(=O)c1cc(-c2ccccc2)sc1NC(=O)COC(=O)c1cccc(NS(C)(=O)=O)c1 [Compound 203]
